Laboratory results as given in PMC12311259, “Antifibrotic effects of specific targeting of the 5‐hydroxytryptamine 2B receptor (5‐HT2BR) in murine models and ex vivo models of scleroderma skin” (Arthritis & Rheumatology (Hoboken, N.j.), 2025).

Legend:
[1] = biological target: T1, Serotonin (5-Hydroxytryptamine) 5-HT1B (hu) (Homo sapiens, UniProt P28222); assay: Receptor binding, Eurofins Panlabs 271200
T1 construct: Eurofins Panlabs 271200
Description: Effects were considered significant if AM1476's mean value was three or more SDs above the vehicle control mean in the agonist assay or three or more SDs below the positive control agonist (5‐nM α‐methylserotonin) mean in the antagonist assay. AM1476 was screened for selectivity against approximately 200 targets using a Eurofins Panlabs Spectrum screen panel including enzymatic and receptor binding assays.

[2] = tested on: Bleomycin-induced pulmonary fibrosis; assay: Bleomycin-induced pulmonary fibrosis in mice; format: in vivo, mouse
Procedure: Pulmonary fibrosis was induced by a single intratracheal instillation of bleomycin (25 μg in 50 μL of 0.9% NaCl).[12] Treatment was initiated at two weeks after the first injection of bleomycin. AM1476 was administered orally at 1, 3, or 10 mg/kg once daily. Solvent (double‐distilled water) was used as a control, and nintedanib at 30 mg/kg orally every day (qd) was included as a comparator. The outcome was analyzed at two and four weeks after the first injection of bleomycin. Mice injected with 0.9% NaCl, the vehicle of bleomycin, served as nonfibrotic controls. Eight mice per group were analyzed.
(§1) Skin samples were fixed in 4% formalin for six hours and embedded in paraffin. Five‐micrometer sections were cut and stained with hematoxylin and eosin (H&E). The dermal thickness was quantified on H&E‐stained sections using images captured with a light microscope (Nikon eclipse 80i) at 100‐fold magnification by manually measuring the distance between the epidermal‐dermal junction and the dermal‐subcutaneous fat junction at four sites per mouse.[15], [16] For lung samples, the whole left lung was fixed in 4% formalin for six hours and embedded in paraffin. Five‐micrometer sections were cut and stained with trichrome and sirius red. Histologic readouts were evaluation of the fibrotic area as the percentage of the total lung area in sirius red–stained sections (two sections per mouse) and quantification of pulmonary changes using the Ashcroft score (four sections per mouse).[17], [18]
(§2) The amount of collagen protein in skin and lung samples was determined by hydroxyproline assay.[19], [20] After digestion in 6 M HCl for three hours at 120°C, the pH of the samples was adjusted to a pH range of 6–7 with 6 M NaOH. Afterward, 0.06 M chloramine T was added to each sample and incubated for 20 minutes at room temperature. Next, 3.15 M perchloric acid and 20% p‐dimethylaminobenzaldehyde were added, and samples were incubated for an additional 20 minutes at 60°C. The absorbance was determined at 557 nm with a Spectra MAX 190 microplate spectrophotometer. Absolute values were determined using a standard curved generated with type I collagen (Sigma‐Aldrich).

Tsk-1 mice = assay: Tsk-1 mouse model of skin fibrosis; format: in vivo
Procedure: (§3) AM1476 was dissolved in sterile distilled water for the ex vivo and in vivo experiments. A concentration of 30 μM was applied for the ex vivo experiment. For the in vivo experiments, 1, 3, or 10 mg/kg was administered orally once or twice daily.
In the murine Tsk‐1 model of SSc, a dominant mutation in the fibrillin 1 gene leads to an SSc‐like disease, with minor inflammatory infiltrates, autoantibody production, and fibrosis of the skin. This model reflects the later stages of SSc characterized by noninflammatory self‐sustaining fibrosis. Eight to 12 mice per group were analyzed. Treatment was initiated at an age of five weeks, and the outcome was analyzed at an age of 10 weeks.[11]
as §1, §2
Myofibroblasts are characterized by the expression of α‐smooth muscle actin (α‐SMA). Fibroblasts positive for α‐SMA were detected by immunohistochemistry staining with monoclonal anti–α‐SMA antibodies (clone 1A4, Sigma‐Aldrich). The expression was visualized with horseradish peroxidase–labeled secondary antibodies and 3,3‐diaminobenzidine tetra hydrochloride (Sigma‐Aldrich). Monoclonal mouse IgG antibodies (Calbiochem) were used as controls. Images of sections stained for α‐SMA were captured on a light microscope (Nikon eclipse 80i). The myofibroblast number was manually evaluated at four different areas at 200‐fold magnification. Myofibroblasts were defined as α‐SMA positive, single, and spindle‐shaped cells in the dermis.[5], [21]

[3] = tested on: cGvHD-induced skin fibrosis; assay: Sclerodermatous cGvHD mouse model (B10.D2 to BALB/c), skin fibrosis incl. RNASeq and immunofluorescence of skin; format: in vivo
Procedure: as §3
The B10.D2→BALB/c (H‐2d) minor histocompatibility antigen–mismatched model was performed as described.[9], [10] Briefly, female BALB/c (H‐2d) mice were purchased from Janvier. Male B10.D2 (H‐2d) mice were initially purchased from Jackson Laboratory. All mice were maintained in specific pathogen‐free conditions with sterile pellet food and water and a normal day–night cycle. For isolation of unfractionated bone marrow cells, tibial and femoral bones were prepared under sterile conditions. Phosphate buffered saline (PBS) was used to flush bone marrow cells from bone marrow cavities. Subsequently, bone marrow cells were filtered through 70‐μm nylon meshes (BD Biosciences), followed by erythrocyte hemolysis. The remaining bone marrow cells were kept on ice until transplantation. Transplantation of bone marrow cells and splenocytes was performed as follows: Recipient mice (BALB/c [H‐2d]) eight weeks of age received total body irradiation with 750 cGy. Six hours after irradiation, all BALB/c (H‐2d) recipients received bone marrow from either BALB/c (H‐2d) in a syngeneic transplantation manner or B10.D2 (H‐2d) in an allogeneic transplantation manner. For transplantation, 5 × 10[6] splenocytes and 2 × 10[6] bone marrow cells from donor mice were resuspended in 0.2 mL of PBS and injected via tail veins.[9], [10] To reflect the clinical situation with treatment initiation upon clinical signs of chronic graft‐versus‐host disease (cGvHD), treatment was started 21 days after bone marrow transplantation (BMT) and thus after the first clinically detectable manifestations of cGvHD in allogeneically transplanted mice. The outcome of treatment was analyzed seven weeks after transplantation. Eight mice per group were analyzed.
Mice were monitored clinically on a daily basis for behavior, activity, texture of the fur, weight, and consistency of the stool.[13] After the mice were killed, a gross macroscopic evaluation of the lungs and the skin was performed.
Recipient mice were clinically monitored on a daily basis from the day of transplantation to the indicated days after transplantation to determine the incidence and severity of cutaneous cGvHD as well as mobility, diarrhea, and weight loss.[10], [14] The following scoring system for cutaneous cGvHD was used: healthy appearance = 0; skin lesions with alopecia <1 cm[2] in area = 1; skin lesions with alopecia 1 to 2 cm[2] in area = 2; and skin lesions with alopecia >2 cm[2] in area = 3.
as §1
The amount of collagen protein in skin and lung samples was determined by hydroxyproline assay.[19], [20] After digestion in 6 M HCl for three hours at 120°C, the pH of the samples was adjusted to a pH range of 6–7 with 6 M NaOH. Afterward, 0.06 M chloramine T was added to each sample and incubated for 20 minutes at room temperature.

[4] = all doses (1, 3, 10 mg/kg orally once daily), vs vehicle-treated bleomycin-challenged mice
[5] = all three doses, vs vehicle-treated 10-week-old Tsk-1 mice
[6] = treatment from day 21 after BMT, vs vehicle-treated mice seven weeks after BMT

T1 sequence (P28222 whole entry): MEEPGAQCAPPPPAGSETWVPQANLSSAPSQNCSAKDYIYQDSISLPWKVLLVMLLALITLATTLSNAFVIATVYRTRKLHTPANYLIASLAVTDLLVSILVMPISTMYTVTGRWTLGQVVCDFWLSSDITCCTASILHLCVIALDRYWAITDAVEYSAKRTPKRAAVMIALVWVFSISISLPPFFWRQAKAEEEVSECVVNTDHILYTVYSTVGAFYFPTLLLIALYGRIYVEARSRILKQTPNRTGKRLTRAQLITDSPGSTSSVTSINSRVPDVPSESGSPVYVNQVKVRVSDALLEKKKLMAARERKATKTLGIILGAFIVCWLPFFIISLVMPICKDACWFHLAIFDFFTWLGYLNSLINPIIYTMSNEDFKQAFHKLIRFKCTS

C[C@@H]1CN(C(=N)N)N=C1c1ccc(F)cc1O [AM1476]
% Inhibition at 10 µM, 5-HT1B (hu) [1]: 19% | antifibrotic effects relative to comparator, across the different readouts ([2]; AM1476 1, 3, 10 mg/kg orally once daily): comparable to those of nintedanib | Ashcroft scores [2, 4]: decreases | collagen-covered area [2, 4]: decreases | hydroxyproline content [2, 4]: decreases | hydroxyproline content vs five-week-old Tsk-1 mice (pretreatment level) (Tsk-1 mice; 10 mg/kg qd or 10 mg/kg bid): comparable | hypodermal thickness vs five-week-old Tsk-1 mice (pretreatment level) (Tsk-1 mice; 10 mg/kg qd or 10 mg/kg bid): comparable | hydroxyproline content (Tsk-1 mice; [5]): reduced | hypodermal thickening (Tsk-1 mice; [5]): reduced | myofibroblast counts (Tsk-1 mice; [5]): reduced | antifibrotic effects, comparison of doses ([3]; 10 mg/kg bid and 10 mg/kg qd (comparable to each other) vs 1 mg/kg bid): more pronounced than with 1 mg/kg bid | hydroxyproline content, skin, vs mice killed after three weeks ([3]; 10 mg/kg qd): significant reduction | number of CD45+ leukocytes in skin ([3]; all doses): none of the concentrations of AM1476 reduced | myofibroblast counts vs mice killed three weeks after BMT ([3]; all three doses): significantly lower | tolerability (clinical examination, gross necropsy, histology) ([3]; all three doses (1 mg/kg bid, 10 mg/kg qd, 10 mg/kg bid), oral): well tolerated without obvious signs of toxicity | AAM (alternatively activated M2 macrophage) counts in the skin ([3]; all three doses, statistically significant for 10 mg/kg qd and 10 mg/kg bid): reduction of AAM accumulation | accumulation of hydroxyproline, skin [3, 6]: reduced | dermal thickening [3, 6]: reduced | myofibroblast differentiation, skin [3, 6]: reduced
